Data set [1] concerns Mus musculus. Kind of data set: Toxicity in mouse B6 cells transplanted ICR mouse assessed as mouse body weight at 30 mg/kg, iv administered 7 days post tumor transplantation (reference value: 18.2 +/- 0.5g). To be noted: in vivo, 168 h. Format: organism-based. The arrangement: dose 30 mg/kg, route intravenous.
Data set [2] relates to B16. Kind of data set: Antitumor activity against mouse B16 cells transplanted in ICR mouse assessed as tumor growth inhibition at 30 mg/kg, iv administered 7 days post tumor transplantation. The format is functional. The following applies: B16, 168 h.
In data set [3] the test system is Mus musculus. The experiment in a line: Toxicity in mouse […] cells transplanted ICR mouse assessed as mouse survival at 30 mg/kg, iv administered 7 days post tumor transplantation. The format is organism-based. The arrangement: dose 30 mg/kg, route intravenous. To be noted: in vivo, 168 h.
Data set [4] deals with Mus musculus. The experiment in a line: Toxicity in […] H22 cells transplanted ICR mouse assessed as mouse survival at 30 mg/kg, ip administered 7 days post tumor transplantation. To be noted: in vivo, 168 h. The arrangement: dose 30 mg/kg, route intraperitoneal. The format is organism-based.
Data set [5] is described as follows: Antiproliferative activity against human SF763 cells after 72 hrs MTT assay. The following applies: SF763, 72 h. Format: functional, cell-based. In general terms: Tetrazolium assays rely on reduction of a dye to a coloured formazan, in cell work by metabolically active cells.
Data set [6] can be described thus: Antiproliferative activity against human Bel7402 cells after 72 hrs MTT assay. The format is functional, cell-based. To be noted: Bel-7402, 72 h.
In data set [7] the test system is B16. Kind of data set: Antitumor activity against mouse B16 cells transplanted in ICR mouse assessed as tumor growth inhibition at 30 mg/kg, ip administered 7 days post tumor transplantation. To be noted: 168 h, route intraperitoneal. The format is functional.
The test system of data set [8] is Mus musculus. Kind of data set: Toxicity in mouse […] cells transplanted ICR mouse assessed as mouse survival at 30 mg/kg, ip administered 7 days post tumor transplantation. The format is organism-based. The arrangement: dose 30 mg/kg, route intraperitoneal. To be noted: in vivo, 168 h.
Data set [9] has as its system H22. Kind of data set: Antitumor activity against […] H22 cells transplanted in ICR mouse assessed as tumor growth inhibition at 30 mg/kg, ip administered 7 days post tumor transplantation. Format: functional. The following applies: 168 h, route intraperitoneal.
In data set [10] the test system is B16. Kind of data set: Antiproliferative activity against mouse B16 cells after 72 hrs MTT assay. The format is functional, cell-based. The following applies: B16, 72 h.
The nature of data set [11]: Antiproliferative activity against human HL60 cells after 72 hrs MTT assay. The format is functional, cell-based. To be noted: HL-60, 72 h.
The test system of data set [12] is Mus musculus. Kind of data set: Toxicity in […] H22 cells transplanted ICR mouse assessed as mouse body weight at 30 mg/kg, ip administered 7 days post tumor transplantation (reference value: 18.4 to 18.9g). The arrangement: dose 30 mg/kg, route intraperitoneal. The format is organism-based. To be noted: in vivo, 168 h.
A further data set relates to HeLa. The experiment in a line: Antiproliferative activity against human HeLa cells after 72 hrs MTT assay. The format is functional, cell-based.
For data set [13], the system named is Mus musculus. Kind of data set: Toxicity in mouse […] cells transplanted ICR mouse assessed as mouse body weight at 30 mg/kg, iv administered 7 days post tumor transplantation (reference value: 18.3 to 18.6g). The following applies: in vivo, 168 h. The format is organism-based. The arrangement: dose 30 mg/kg, route intravenous.
For data set [14], the system named is H22. Kind of data set: Antitumor activity against human H22 cells transplanted in ICR mouse assessed as tumor growth inhibition at 30 mg/kg, iv administered 7 days post tumor transplantation. To be noted: 168 h, read-out: INH.

The structures appear in SMILES notation.

As to `O=c1[nH]cc(F)c(=O)[nH]1` [FLUOROURACIL], the Activity in the data set with Mus musculus [1] is recorded as 26.2 g; in the data set with Mus musculus [3], “Non-toxic”. Further, the inhibition in vivo at 30 mg/kg with B16 [2] is 70.3%.

What is called IC50 is the concentration that inhibits the measured activity by half. Regarding `C=C(C)[C@@H]1CC[C@]2(C(=O)O)CC[C@]3(C)[C@H](CC[C@@H]4[C@@]5(C)CC[C@H](O)[C@@](C)(CO)[C@@H]5CC[C@]43C)[C@@H]12`, the Activity result is “Non-toxic” in the data set with Mus musculus [4], “Non-toxic” in the data set on Mus musculus [8], 26.1 g in the data set with Mus musculus [12] and 26.7 g in the data set with Mus musculus [13]. Moreover, the 50% inhibitory concentration (IC50) in data set [5] was determined as 43.4 µM; in data set [6], 39.7 µM; with B16 [10] it was 29.9 µM; in data set [11] it was 45.1 µM; in the data set with HeLa, 52.4 µM. For the same molecule, the inhibition in vivo at 30 mg/kg in the data set with B16 [7] was determined as 32.4%; with H22 [9], 27.8%.

Take `C=C(C)[C@@H]1CC[C@]2(C(=O)O)CC[C@]3(C)[C@H](CC[C@@H]4[C@@]5(C)CCC(=O)[C@@](C)(CO)[C@@H]5CC[C@]43C)[C@@H]12`: the Activity entry with Mus musculus [4] is on record as “Non-toxic”; in the data set on Mus musculus [8] it was “Non-toxic”; in the data set on Mus musculus [12] it was 26.8 g; in the data set with Mus musculus [13], 27.3 g. Besides, the 50% inhibitory concentration (IC50) worked out at 29.3 µM in data set [5]; 33.8 µM in [6]; 20.6 µM in the data set on B16 [10]; 36.1 µM in data set [11]; 39.2 µM with HeLa. The inhibition in vivo at 30 mg/kg stood at 48.1% with B16 [7] and 39.5% in the data set with H22 [9].

Regarding `C=C(C)[C@@H]1CC[C@]2(C(=O)NCCN)CC[C@]3(C)[C@H](CC[C@@H]4[C@@]5(C)CCC(=O)[C@@](C)(COC(C)=O)[C@@H]5CC[C@]43C)[C@@H]12`, the Activity entry with Mus musculus [4] is “Non-toxic”; in the data set with Mus musculus [8], “Non-toxic”; in the data set on Mus musculus [12] it was 27.2 g; in the data set on Mus musculus [13] it was 26.9 g. Further, the 50% inhibitory concentration (IC50) in data set [5] came out at 6.23 µM; in data set [6], 7.22 µM; in the data set with B16 [10], 5.58 µM; in [11] it was 8.64 µM; with HeLa, 10.6 µM. The inhibition in vivo at 30 mg/kg in the data set with B16 [7] is 62.7%; with H22 [9], 51.8%.

Regarding `O=P1(N(CCCl)CCCl)NCCCO1` (configuration not stated) [CYCLOPHOSPHAMIDE ANHYDROUS], the inhibition in vivo at 30 mg/kg in the data set on H22 [14] amounted to 53.7%.

As for `C=C(C)[C@@H]1CC[C@]2(C(=O)O)CC[C@]3(C)[C@H](CC[C@@H]4[C@@]5(C)C[C@H](CO)[C@H](O)[C@@](C)(CO)[C@@H]5CC[C@]43C)[C@@H]12`, the IC50 stood at 50.2 µM in data set [5]; 59.1 µM in data set [6]; 47.9 µM with B16 [10]; 69 µM in [11]; 70.8 µM with HeLa.

Turning to `C=C(C)[C@@H]1CC[C@]2(C(=O)O)CC[C@]3(C)[C@H](CC[C@@H]4[C@@]5(C)C[C@H](O)[C@H](O)[C@@](C)(CO)[C@@H]5CC[C@]43C)[C@@H]12`, the IC50 was 53.9 µM in data set [5]; 56.8 µM in data set [6]; 36.9 µM with B16 [10]; 66.3 µM in [11]; 67.8 µM with HeLa.

In the case of `C=CCOC(=O)[C@]12CC[C@@H](C(=C)C)[C@@H]1[C@H]1CC[C@@H]3[C@@]4(C)CCC(=O)[C@@](C)(CO)[C@@H]4CC[C@@]3(C)[C@]1(C)CC2`, the IC50 is 15.1 µM in data set [5]; 19 µM in data set [6]; 11.8 µM in the data set with B16 [10]; 21.8 µM in [11]; 22.8 µM in the data set with HeLa.

Values taken from ChEMBL document CHEMBL3351759, “Synthesis and antitumor activity of novel 3-oxo-23-hydroxybetulinic acid derivatives” (Eur J Med Chem, 2014).
